Reference: patent publication US20210046106A1, “METHODS OF TREATING CANCER WITH ANDROGEN DEPRIVATION THERAPY IN COMBINATION WITH AN INHIBITOR OF THE SP1 TRANSCRIPTION FACTOR” (The Board of Trustees of the Leland Stanford Junior …, priority 2019, published 2021)
“And” between values parts separate entries of the source, which are not always exact repeats. Equal entries are not always repeated. “Also recorded” adds a separate entry of the source.

Experiment: Phase 1 trial of sodium selenite with palliative radiation therapy: adverse events / toxicity
Source text: Patients: This study was approved by the Food and Drug Administration (IND 122151), the Stanford University Internal Review Board, and the Scientific Review Committee for the Stanford Cancer Institute. […] The study was initially open only to prostate cancer patients, but then expanded to include a variety of tumor types. […] Before study entry, patients had to meet a number of eligibility criteria. Inclusion criteria included a) histologically-confirmed solid tumor malignancy with confirmation of metastasis, multiple myeloma, or plasmacytoma, b) need for palliative radiation therapy, c) for prostate cancer patients, PSA at least 2 ng/mL, except for patients who had recently started androgen deprivation therapy with PSA less than 2 ng/mL, d) […], e) life expectancy greater than 3 months, f) Eastern Cooperative Oncology Group (ECOG) performance status of zero or one or Karnofsky performance status 80%, and g) QT interval corrected using Fridericia's method (QTcF) <460 msec.
Patients were treated in groups of three with each receiving the same dose. […] Dose escalation was to proceed as follows: a) if none of the three patients experienced a dose limiting toxicity (DLT), dose escalation to the next dose level would occur, b) if one of three patients treated at that dose level experienced a DLT, that dose level would be expanded to six subjects; if no additional patient in that cohort experienced a DLT, dose escalation to the next dose level would occur, c) if two patients in a cohort experienced a DLT, dose escalation would stop and the prior dose would be considered the maximum tolerated dose (MTD). At that point the MTD was to be expanded to a total of six patients.
Baseline evaluations included EKG, PSA for prostate cancer patients, CBC with differential, CMP, LDH, bone scan (BS), or CT, PET/CT or MRI as clinically indicated to monitor response to therapy. Palliative radiation therapy utilized standard of care palliative dose/fractionation regimens. On Week 1, Day 1 patients underwent physical exam (PE), laboratory studies as above and EKG. All patients completed a pain inventory, the Brief Pain Inventory, prior to therapy. […] Weekly, during radiation therapy, patients had vital signs performed, with assessment of adverse events (AEs), labs and EKG if clinically indicated. The pain inventory was completed again on the last day of radiation therapy. Following completion of therapy, the first follow-up visit was within 2-3 months +/−2 weeks, with subsequent follow-up visits optional until progression of disease at the site of radiation. […] They also completed another pain inventory.

[1] = 33 mg cohort, count-attribution

O=[Se](O)O [sodium selenite, Sodium selenite pentahydrate]
Abdominal pain grade 1: Number of Occurrences (33 mg cohort): 3 | Abdominal pain grade 1: Number of Subjects Affected (33 mg cohort): 3 | Anemia grade 3: Number of Occurrences (33 mg cohort): 1 | Anemia grade 3: Number of Subjects Affected (33 mg cohort): 1 | Anemia grade 3: Relation to Selenite (33 mg cohort): Unrelated | Back Pain grade 1: Number of Occurrences (33 mg cohort): 1 | Back Pain grade 1: Number of Subjects Affected (33 mg cohort): 1 | Back Pain grade 1: Relation to Selenite (33 mg cohort): Unrelated | Bone Pain grade 1: Number of Occurrences (33 mg cohort): 1 | Bone Pain grade 1: Number of Subjects Affected (33 mg cohort): 1 | Bone Pain grade 1: Relation to Selenite (33 mg cohort): Unrelated | Diarrhea grade 1: Number of Occurrences (33 mg cohort): 5 | Diarrhea grade 1: Number of Subjects Affected (33 mg cohort): 4 | Dizziness grade 1: Number of Occurrences (33 mg cohort): 1 | Dizziness grade 1: Number of Subjects Affected (33 mg cohort): 1 | Dizziness grade 1: Relation to Selenite (33 mg cohort): Probable | Dysphagia grade 1: Number of Occurrences (33 mg cohort): 1 | Dysphagia grade 1: Number of Subjects Affected (33 mg cohort): 1 | Dysphagia grade 1: Relation to Selenite (33 mg cohort): Unrelated | Dyspnea grade 1: Number of Occurrences (33 mg cohort): 1 | Dyspnea grade 1: Number of Subjects Affected (33 mg cohort): 1 | Dyspnea grade 1: Relation to Selenite (33 mg cohort): Unrelated | Dyspnea grade 2: Number of Occurrences (33 mg cohort): 1 | Dyspnea grade 2: Number of Subjects Affected (33 mg cohort): 1 | Dyspnea grade 2: Relation to Selenite (33 mg cohort): Unrelated | ECG QTcF Prolonged grade 1: Number of Occurrences (33 mg cohort): 2 | ECG QTcF Prolonged grade 1: Number of Subjects Affected (33 mg cohort): 2 | ECG QTcF Prolonged grade 1: Relation to Selenite (33 mg cohort): Probable | Facial Pain grade 1: Number of Occurrences (33 mg cohort): 1 | Facial Pain grade 1: Number of Subjects Affected (33 mg cohort): 1 | Facial Pain grade 1: Relation to Selenite (33 mg cohort): Unrelated | Fall (Mechanical) grade 2: Number of Occurrences (33 mg cohort): 2 | Fall (Mechanical) grade 2: Number of Subjects Affected (33 mg cohort): 1 | Fall (Mechanical) grade 2: Relation to Selenite (33 mg cohort): Unrelated | Fatigue grade 1: Number of Occurrences (33 mg cohort): 2 | Fatigue grade 1: Number of Subjects Affected (33 mg cohort): 2 | Fatigue grade 1: Relation to Selenite (33 mg cohort): Possible | Fatigue grade 2: Number of Occurrences (33 mg cohort): 2 | Fatigue grade 2: Number of Subjects Affected (33 mg cohort): 1 | Fatigue grade 2: Relation to Selenite (33 mg cohort): Unrelated,; also recorded: Possible | Flu-like Symptoms grade 1: Number of Occurrences (33 mg cohort): 2 | Flu-like Symptoms grade 1: Number of Subjects Affected (33 mg cohort): 1 | Flu-like Symptoms grade 1: Relation to Selenite (33 mg cohort): Unrelated | Nausea grade 1: Number of Occurrences (33 mg cohort): 8 | Nausea grade 1: Number of Subjects Affected (33 mg cohort): 5 | Nausea grade 2: Number of Occurrences (33 mg cohort): 1 | Nausea grade 2: Number of Subjects Affected (33 mg cohort): 1 | Paresthesia grade 1: Number of Occurrences (33 mg cohort): 1 | Paresthesia grade 1: Number of Subjects Affected (33 mg cohort): 1 | Paresthesia grade 1: Relation to Selenite (33 mg cohort): Unrelated | Sore Throat grade 1: Number of Occurrences (33 mg cohort): 1 | Sore Throat grade 1: Number of Subjects Affected (33 mg cohort): 1 | Sore Throat grade 1: Relation to Selenite (33 mg cohort): Unrelated | Upper Respiratory Infection grade 1: Number of Occurrences (33 mg cohort): 1 | Upper Respiratory Infection grade 1: Number of Subjects Affected (33 mg cohort): 1 | Upper Respiratory Infection grade 1: Relation to Selenite (33 mg cohort): Unrelated | Vomiting grade 1: Number of Occurrences (33 mg cohort): 6 | Vomiting grade 1: Number of Subjects Affected (33 mg cohort): 2 | Vomiting grade 2: Number of Occurrences (33 mg cohort): 1 | Vomiting grade 2: Number of Subjects Affected (33 mg cohort): 1 | Vomiting grade 2: Relation to Selenite (33 mg cohort): Probable | Abdominal pain grade 1: Relation to Selenite [1]: 1-Possible, and 2-Probably | Diarrhea grade 1: Relation to Selenite [1]: 2-Possible, and 3-Probable | Vomiting grade 1: Relation to Selenite [1]: 4-Probable, and 2-Unlikely | Nausea grade 1: Relation to Selenite (33 mg cohort, printed 7-Probable, 1-Unrelated over four lines): Probable,; also recorded: Unrelated | Nausea grade 2: Relation to Selenite (33 mg cohort, printed Probable/Definite over two lines): Probable/; also recorded: Definite | primary toxicities (33 mg dose level): grade 1 GI side effects | QT prolongation (33 mg dose level, ECG review): grade 1 QT prolongation in 2 patients; also recorded: two patients had grade 1 ECG QTcF prolongations; also recorded: within the range of expected intra-subject variability | primary toxicities (33 mg dose level, listed as selenite): grade 1 GI side effects; also recorded: grade 1 GI toxicities | Back Pain grade 2: Number of Occurrences (49.5 mg cohort): 1 | Back Pain grade 2: Number of Subjects Affected (49.5 mg cohort): 1 | Back Pain grade 2: Relation to Selenite (49.5 mg cohort): Unrelated | Diarrhea grade 2: Number of Occurrences (49.5 mg cohort): 1 | Diarrhea grade 2: Number of Subjects Affected (49.5 mg cohort): 1 | Diarrhea grade 2: Relation to Selenite (49.5 mg cohort): Possible | Fatigue grade 1: Number of Occurrences (49.5 mg cohort): 1 | Fatigue grade 1: Number of Subjects Affected (49.5 mg cohort): 1 | Fatigue grade 1: Relation to Selenite (49.5 mg cohort): Possible | Nausea grade 1: Number of Occurrences (49.5 mg cohort): 1 | Nausea grade 1: Number of Subjects Affected (49.5 mg cohort): 1 | Nausea grade 1: Relation to Selenite (49.5 mg cohort): Probable | Nausea grade 2: Number of Occurrences (49.5 mg cohort): 1 | Nausea grade 2: Number of Subjects Affected (49.5 mg cohort): 1 | Nausea grade 2: Relation to Selenite (49.5 mg cohort): Probable | Pain in Extremity grade 2: Number of Occurrences (49.5 mg cohort): 1 | Pain in Extremity grade 2: Number of Subjects Affected (49.5 mg cohort): 1 | Pain in Extremity grade 2: Relation to Selenite (49.5 mg cohort): Unrelated | Vomiting grade 1: Number of Occurrences (49.5 mg cohort): 1 | Vomiting grade 1: Number of Subjects Affected (49.5 mg cohort): 1 | Vomiting grade 1: Relation to Selenite (49.5 mg cohort): Probable | Vomiting grade 2: Number of Occurrences (49.5 mg cohort): 1 | Vomiting grade 2: Number of Subjects Affected (49.5 mg cohort): 1 | Vomiting grade 2: Relation to Selenite (49.5 mg cohort): Probable | toxicity in the one patient at 49.5 mg (49.5 mg dose level, 1 patient): grade 2 nausea/vomiting and diarrhea; also recorded: grade 2 GI toxicity; also recorded: grade 2 diarrhea, nausea and vomiting | toxicity / adverse events attributable to selenite (5.5, 11 and 16.5 mg dose levels, oral 2 h before RT): no toxicity attributable to selenite; also recorded: no adverse events attributable to selenite; also recorded: no AEs attributable to the selenite | toxicities at all other dose levels (33 and 49.5 mg dose levels): grade 1 and 2 GI toxicities | maximum tolerated dose (MTD) (doses 5.5 to 49.5 mg po/day with RT): not reached | highest acceptable / reasonably well tolerated dose (oral once daily with RT, ondansetron prn): 33 mg
